Source: patent publication US20230255939A1, “Antimicrobial Agent for Non-Human Animal” (ISHIHARA SANGYO KAISHA, LTD, priority 2020, published 2023)
In brackets after ≈: the same amount, converted by molar mass. Read-outs that look alike come from different tables or passages of the source.

Tests used:
Type in all cases: cell-based
[1] = test system: Microsporum canis (NBRC7863); assay: Antimicrobial activity test, minimum inhibitory concentration (Test Example 5); settings: Sabouraud media, 25° C. for 120 hours
Protocol: Test Example 5: Antimicrobial Activity Test Test Compound: Compound No. 6 Test Microbial Strain: Microsporum Canis (NBRC7863) The strain was cultured in a Sabouraud medium and then suspended in PBS containing Tween80 (1% (V/V)), the resulting suspension was filtered through a cell strainer (φ40 µm), spores were recovered from the filtrate by centrifugation (3500 rpm, 5 minutes) and washed twice with physiological saline, and then a spore suspension was prepared (1 × 10^6 spores/mL). 50 µL of the spore suspension was inoculated into Sabouraud media to which compound No. 6 dissolved in DMSO was added to have various concentrations. After culturing at 25° C. for 120 hours, the presence or absence of microbial growth was investigated, and the minimum inhibitory concentration was determined.

[2] = test system: Microsporum canis (IFM63627); assay: Antifungal activity test, minimum fungicidal concentration on spores (Test Example 8); settings: read-out: Minimum fungicidal concentration (MFC100)
Protocol: Test Example 8: Antifungal Activity Test
(§1) Test Compound: Compound No. 6
(§2) Test Microbial Strain: Microsporum Canis (IFM63627)
Microsporum canis was cultured at 32° C. for 168 hours in a ⅒ Sabouraud medium to form spores, then 10 mL of physiological saline (Otsuka Normal Saline; containing 9 g of sodium chloride in 1000 mL) was added directly onto the medium, and the surface was rubbed using a disposable loop (type 1 (1 µL)) to recover a spore suspension containing hyphae. The spore suspension containing hyphae was filtered through a cell strainer (φ40 µm). The spores were recovered from the filtrate by centrifugation (3500 rpm, 5 minutes) and washed twice with physiological saline, and then a spore suspension was prepared (1 × 10^7 spores/mL). 10 µL of the spore suspension was inoculated into 90 µL of physiological saline to which compound No. 6 dissolved in DMSO was added to have a predetermined concentration. […] The 10-µL spore suspension was spotted onto a Sabouraud medium and subjected to culturing at 32° C. for 72 hours, the presence or absence of colony growth was investigated, and the minimum fungicidal concentration (MFC100) was determined.

[3] = test system: Microsporum canis (IFM63627); assay: Antifungal activity test, minimum inhibitory concentration (Test Example 7); settings: Sabouraud medium, 32° C. for 72 hours, read-out: Minimum inhibitory concentration (MIC100)
Protocol: Test Example 7: Antifungal Activity Test
as §1, §2
The antifungal activity was studied by partially modifying the method of Test Example 5. Microsporum canis was cultured at 32° C. for 168 hours in a ⅒ Sabouraud medium to form spores, then 10 mL of physiological saline (Otsuka Normal Saline; containing 9 g of sodium chloride in 1000 mL) was added directly onto the medium, and the surface was rubbed using a disposable loop (type 1 (1 µL)) to recover a spore suspension containing hyphae. The spore suspension containing hyphae was filtered through a cell strainer (φ40 µm). The spores were recovered from the filtrate by centrifugation (3500 rpm, 5 minutes) and washed twice with physiological saline, and then a spore suspension was prepared (1 × 10^7 spores/mL). 10 µL of the spore suspension was inoculated into a Sabouraud medium to which the test compound dissolved in DMSO was added to have a predetermined concentration. Microsporum canis was cultured at 32° C. for 72 hours, then the presence or absence of colony growth was investigated, and the minimum inhibitory concentration (MIC100) was determined.

[4] = test system: Malassezia pachydermatis (IFM56528 strain); assay: Antimicrobial activity test: colony formation inhibition after 1 minute contact (Test Examples 1 and 2); settings: M. pachydermatis IFM56528, final concentration 500 ppm, then culturing at 32° C. for 72 hours, read-out: Colony formation inhibition rate (%)
Protocol: Test microbial strain: Malassezia pachydermatis (IFM56528 strain, strain obtained from Chiba University) The Malassezia microbe (Malassezia pachydermatis) cultured for 5 to 7 days in a Sabouraud medium (1% peptone, 4% dextrin, 1.5% agar) supplemented with 0.5% of Tween 40 (polyoxyethylene sorbitan monopalmitate: manufactured by Kanto Chemical Co., Inc.) was suspended in physiological saline and a suspension thereof was prepared in such a way as to have an absorbance of 0.25 at 550 nm. […] Colony formation inhibition rate (%) = [(number of colonies in non-agent treated plot - number of colonies in inventive plot)/number of colonies in non-agent treated plot] × 100 Test compound: Compound No. 1 (final concentration of 500 ppm) Test microbial strains: Malassezia pachydermatis (IFM56528 strain), M. furfur (IMF55951 strain), M. sympodialis (IMF48588 strain), M. globosa (IMF51946 strain), and M. restricta (IMF55992 strain) The colony formation inhibition rate for each of the test strains was determined by the same method as in Test Example 1.

[5] = test system: Microsporum canis (TIMM20080 strain); assay: Antimicrobial activity test, minimum inhibitory concentration (Test Example 4); settings: Sabouraud media, 28° C. for 72 hours
Protocol: Test Example 4: Antimicrobial Activity Test Test Compound: Compound No. 1
Test Microbial Strain: Microsporum Canis (TIMM20080 Strain)
The microbial strain was cultured in a Sabouraud medium containing 500 µg/mL of cycloheximide and 50 µg/mL of chloramphenicol at 28° C. for 8 days, then spores were collected in physiological saline containing Tween80 (0.05% (v/v)), this was filtered through a cell strainer (φ40 µm), the spores were recovered from the filtrate by centrifugation (3500 rpm, 5 minutes) and washed twice with physiological saline, and then a spore suspension was prepared (1 × 10^7 spores/mL). 10 µL of the spore suspension was inoculated into Sabouraud media to which compound No. 1 dissolved in DMSO was added to have various concentrations. After culturing at 28° C. for 72 hours, the amount of microbial growth was investigated, and the minimum inhibitory concentration was determined.

SMILES | MIC [1] | MFC ([2]; treatment time 24 Hours) | MFC ([2]; treatment time 96 Hours) | MIC [3] | inhibition at 500 ppm [4] | MIC [5]
Cc1ccc(-c2nc(C#N)[nH]c2Cl)cc1Cl [Compound No. 6, 5-chloro-4-(3-chloro-4-methylphenyl)-1H-imidazole-2-carbonitrile] | 125 µg/mL (≈ 496 µM) | 50 µg/mL (≈ 198 µM) | 10 µg/mL (≈ 39.7 µM) | 5 µg/mL (≈ 19.8 µM) |  | 
Cc1ccc(-c2nc(C#N)[nH]c2Cl)cc1 [Compound No. 1, 5-Chloro-4-(4-methylphenyl)-1H-imidazole-2-carbonitrile] |  |  |  |  | 100% | 10 µg/mL (≈ 45.9 µM)
